Laboratory results taken from US11566049B2, “Cyclic peptides and uses thereof” (LATERAL IP PTY LTD, priority 2018, dated 2023).
Values joined by “and” are separate entries in the source; they are usually repeats but may differ in a detail not shown here. Equal entries are not always repeated. “Also recorded” adds a separate entry of the source. Positions of bridges follow the written chain, without caps; N, C: chain ends. No end group written: not given here.

Key:
dorsal horn neurons [1] = test: whole-cell recording of dorsal horn neurons in spinal cord slices from Chung models (Example 3); type: cell-based, rat; conditions: 5 μM; for Input Resistance, mean in presence of peptide / Membrane Potential, mean in presence of peptide: all cells; for Normalised Input Resistance / Normalised Input Resistance ΔIR: control = 100; for effect on membrane potential and activity of dorsal horn neurons: ipsilateral to injury; for Normalised Membrane Potential / Normalised Membrane Potential ΔVm: rest = 100; for ΔIR, change in neuronal input resistance: vs control, positive in table = reduction; for ΔVm, change in membrane potential: vs rest, positive in table = hyperpolarisation
Experimental: Spinal nerve ligation (Chung model; as described in Examples 1 and 2, above) was performed by a single tight ligation on the L5 spinal nerve. […] This animal model is often used as the “gold standard” for neuropathic pain.
(§1) Adult male Sprague-Dawley rats, weighing 220-250 g (aged 7 weeks and older) at the time of surgery, were used in this study. They were housed in groups of 4, in an air-conditioned room, on a 12-hour light/dark cycle with food and water available ad libitum. All experiments were performed in accordance with the U. K. Animals (Scientific Procedures) Act (1986).
(§2) The animals were housed in groups of 4 in an air-conditioned room on a 12-hour light/dark cycle. Food and water were available ad libitum. Animals were allowed to acclimatise to the environment for experiments for three days by leaving them on a raised metal mesh for at least 40 min. The baseline paw withdrawal threshold (PWT) was examined using a series of graduated von Frey hairs (see below) for 3 consecutive days before surgery and re-assessed on the 6th to 8th day after surgery and on the 12th to 14th day-after surgery before drag dosing.
(§3) Each rat was anaesthetized with 5% isoflurane mixed with oxygen (2 L per min) followed by an intramuscular (i.m.) injection of ketamine 90 mg/kg plus xylazine 10 mg/kg. The back was shaved and sterilized with povidone-iodine. The animal was placed in a prone position and a para-medial incision was made on the skin covering the L4-6 level. The L5 spinal nerve was carefully isolated and tightly ligated with 6/0 silk suture. The wound was then closed in layers after a complete haemostasis. A single dose of antibiotics (Amoxipen, 15 mg/rat, i.p.) was routinely given for prevention of infection after surgery. The animals were placed in a temperature-controlled recovery chamber until fully awake before being returned to their home cages.
The peptides of SEQ ID NO:27 (also referred to herein as LAT9993 Loop) and SEQ ID NO:28 (also referred to herein as LAT9993S or LAT9993 LoopS), were solubilised in distilled water and made up as concentrated stocks and stored frozen until the day of experiment when they were diluted to the required test concentrations in artificial cerebrospinal fluid (aCSF). The aCSF comprised (mM): NaCl, 127; KCl, 1.9; KH2PO4, 1.2; CaCl2, 2.4; MgCl2, 1.3; NaHCO3, 26; D-glucose, 10; equilibrated with 95% O2-5% CO2.
(§4) Ten to fourteen days after surgery, animals were placed in individual Perspex boxes on a raised metal mesh for at least 40 minutes prior to PWT testing. Starting with the filament of lowest force (1 g), each filament was applied perpendicularly to the centre of the ventral surface of the paw until slightly bent for 6 seconds. If the animal withdrew or lifted its paw upon stimulation, a von Frey hair with force immediately lower than that tested was subsequently used. If no response was observed, then a hair with force immediately higher was tested. The lowest amount of force required to induce reliable responses (positive in 2 out of 3 trials) was recorded as the value of PWT. Only animals showing significant mechanical allodynia (PWT≤3.5 g) were selected for subsequent electrophysiological experiments (see FIG. 5).
(§5) Once validation of a neuropathic state had been confirmed, animals were terminally anesthetized using isoflurane (Norvartis Animal Health UK Ltd.), cervically dislocated and decapitated. A laminectomy was performed and the spinal cord, with spinal roots and DRG attached, removed and cut into 250-450 μm thick slices using a Leica VT1000S vibrating microtome (Leica Microsystems UK, Milton Keynes, United Kingdom). Slices were maintained in artificial cerebrospinal fluid (aCSF) at room temperature for 1 hr after slicing before recording. For recording, individual slices were held between two grids in a custom-built chamber continuously perfused with aCSF at a rate of 4-10 ml.min^−1, illuminated from below, and viewed under a dissection microscope. […]

dorsal horn neurons [2] = test: whole-cell recording of dorsal horn neurons in spinal cord slices from Chung models (Example 4); type: cell-based, rat; conditions: 1 μM
Experimental: as §1, with “(aged/weeks” for “(aged 7 weeks”, “U.K.” for “U. K.”
as §2, with “They” for “Animals”, “day after” for “day-after”, “drug” for “drag”
as §3
LAT9993 LoopS (SEQ ID NO:28), SEQ11+LAT9993 Loop (SEQ ID NO:32; […]), SEQ25+LAT9993 Loop (SEQ ID NO:33; […]), LAT9993 SLoop A4 (SEQ ID NO:30), LAT9993 SLoop A7 (SEQ ID NO:31), LAT9993 SLoop A9 (SEQ ID NO:34; SCRSRPVEASC) and LAT9993 SLoop A10 (SEQ ID NO:35; SCRSRPVESAC), were solubilised in distilled water and made up as concentrated stocks and stored frozen until the day of experiment when they were diluted to the required test concentrations in artificial cerebrospinal fluid (aCSF), as described in Example 3, above.
as §4
as §5, with “microscope. The aCSF was of the following composition (mM): NaCl, 127; KCl, 1.9; KH2PO4, 1.2; CaCl2, 2.4; MgCl2, 1.3; NaHCO3, 26; D-glucose, 10; equilibrated with 95% O2-5% CO2.” for “microscope.”

CRSRPVESSC (disulfide 1-10 (inferred); listed as Homo sapiens) [LAT9993 Loop, cyclic peptide of formula (I), disulphide bond between the two cysteine residues]
dorsal root afferent-mediated EPSPs (dorsal horn neurons [1]): suppression; also recorded: suppressed dorsal root afferent mediated excitatory synaptic transmission
evoked inhibitory post-synaptic potentials (dorsal horn neurons [1]): little effect
Input Resistance, mean in presence of peptide (dorsal horn neurons [1]): 566.3±82.0 MΩ and 566.3 MΩ
Membrane Potential, mean in presence of peptide (dorsal horn neurons [1]): −51.9±3.9 mV and −51.9 mV
Normalised Input Resistance (dorsal horn neurons [1]): 92.4
Normalised Input Resistance ΔIR (dorsal horn neurons [1]): 7.6
effect on membrane potential and activity of dorsal horn neurons (dorsal horn neurons [1]): marked membrane hyperpolarisation and inhibition of activity in 4 neurons; also recorded: little effect on a further 2 dorsal horn neurons
Normalised Membrane Potential (dorsal horn neurons [1]): 107.2
Normalised Membrane Potential ΔVm (dorsal horn neurons [1]): −7.2
ΔIR, change in neuronal input resistance (dorsal horn neurons [1]): 51.6±75.3 MΩ and 51.6 MΩ
ΔVm, change in membrane potential (dorsal horn neurons [1]): 3.5±1.1 mV and 3.5 mV

CRSRPVESSCS (disulfide 1-10 (inferred); listed as Homo sapiens) [LAT9993 LoopS, cyclic peptide of formula (I), disulphide bond between the two cysteine residues]
dorsal root afferent-mediated EPSPs (dorsal horn neurons [1]): suppression of dorsal root afferent-mediated EPSPs, in one neurone selectively
Input Resistance, mean in presence of peptide (dorsal horn neurons [1]): 788±191.9 MΩ and 788.0 MΩ
Membrane Potential, mean in presence of peptide (dorsal horn neurons [1]): −50.6±1.8 mV and −50.6 mV
Normalised Input Resistance (dorsal horn neurons [1]): 95.6
Normalised Input Resistance ΔIR (dorsal horn neurons [1]): 4.4
effect on membrane potential and activity of dorsal horn neurons (dorsal horn neurons [1]): membrane hyperpolarisation and inhibition of activity in 3 neurons; also recorded: little effect on a further 2 dorsal horn neurons; also recorded: principally induced inhibition of dorsal horn neurons or was without significant effect
dorsal root afferent-mediated EPSPs (dorsal horn neurons [1]; listed as LAT999 LoopS): suppressed dorsal root-evoked excitatory posts-synaptic potentials (EPSPs) in two neurons
dorsal root afferent-mediated EPSPs (dorsal horn neurons [1]; listed as LAT9993S): suppression of EPSPs; also recorded: selectively suppressed
Normalised Membrane Potential (dorsal horn neurons [1]): 109.2
Normalised Membrane Potential ΔVm (dorsal horn neurons [1]): −9.2
reversal potential of induced response (VI plots intersect) (dorsal horn neurons [1]; single cells): around −55 mV
ΔIR, change in neuronal input resistance (dorsal horn neurons [1]): 22.1±24.2 MΩ and 22.1 MΩ
ΔVm, change in membrane potential (dorsal horn neurons [1]): 3.8±2 mV and 3.8 mV
dorsal root afferent-mediated EPSPs / synaptic inputs (words) (dorsal horn neurons [2]): either slightly suppressed dorsal root-evoked excitatory post-synaptic potentials (EPSPs) or had little effect; also recorded: little effect
Input Resistance, mean in presence of peptide (dorsal horn neurons [2]; all cells): 502.6±104.1 MΩ and 502.6 MΩ
Membrane Potential, mean in presence of peptide (dorsal horn neurons [2]; all cells): −44.7±4.3 mV and −44.7 mV
Normalised Input Resistance (dorsal horn neurons [2]; control = 100): 92.8
Normalised Input Resistance ΔIR (dorsal horn neurons [2]; control = 100): 7.2
effect on membrane potential and activity of dorsal horn neurons (dorsal horn neurons [2]; ipsilateral to injury): membrane hyperpolarisation and inhibition of activity in 1 neurone; also recorded: membrane depolarisation in the other two neurons; also recorded: small excitation of dorsal horn
dorsal root afferent-mediated EPSPs / synaptic inputs (words) (dorsal horn neurons [2]; listed as LAT9993 Loop S): little effect
Normalised Membrane Potential (dorsal horn neurons [2]; rest = 100): 91.5
Normalised Membrane Potential ΔVm (dorsal horn neurons [2]; rest = 100): 8.5
reversal potential of induced response (VI plots intersect) (dorsal horn neurons [2]; single cells): around −85 mV
ΔIR, change in neuronal input resistance (dorsal horn neurons [2]; vs control, in table positive = reduction, negative = increase): 28.7±34.9 MΩ and 28.7 MΩ
